Measured values reported in US4990538A, “Use of toremifene and its metabolites for the reversal of multidrug resistance of cancer cells against cytotoxic drugs” (priority 1989, dated 1991).
Entries after “also recorded” stand apart in the source; their conditions may differ. Where a name gives a salt, the structure may show the parent alone. Numbered stars: 1 amine (or outer) side, 2 acyl side, 3 side chain; on linkers, the order of the positions; unused ones are H or OH. Bridge positions count the residues as written; N and C are the ends. Square brackets hold non-standard residues; d marks the D form. Peptide text beside a SMILES is read from it. I, II: the chains in the order shown. Actinocin(9to1) = Cc1c2oc3c(C)ccc(C(=O)[*:1])c3nc-2c(C(=O)[*:2])c(N)c1=O; NMeV = CN[C@H](C(=O)O)C(C)C; Sar = CNCC(=O)O

Key:
rat PKC = settings: O'Brian et al; cited from earlier work
MCF-7/DOX cells = assay: Inhibition of cell growth / reversal of MDR in MCF-7/DOX cells (methylene blue); type: cell-based, human; settings: for Effectiveness in reversing MDR: MCF-7/DOX cells, Table 5 and FIG. 7; for Inhibition of cell growth, Actual: 2880 min
Description: The cells were cultivated in 100 ul volumes in 96-well microtiter plates. The principle of the method was to cultivate cells in the presence of the drugs/ drug combinations for 48 hours. After this time the living cells were stained with methylene blue and quantitated spectrophotometrically using microtiter plate reader (Titertek Model MCC/340) interfaced to an Apple IIe computer. Inhibition of the cell growth is expressed as a percentage of absorbance of vehicle treated control cultures.

PKC = settings: Horgan et al; cited from earlier work
[1] = system: MCF-7 oestrogen receptor positive breast cancer cell line; settings: Foster et al, cited from earlier work; for Modulation of multidrug resistance: 10 μM tamoxifen or perhexilene maleate
[2] = at dose levels or concentrations required for MDR reversal; cited from earlier work
cultured cells = settings: Sutherland et al; cited from earlier work
MDR cell = settings: Ramu et al; cited from earlier work
CHO-Adr cells = assay: MTT cell viability assay in doxorubicin resistant CHO-Adr cells; settings: CHO-Adr cell line
Description: Initial cell growth studies were carried out to investigate the effect of combination toremifene +doxorubicin in doxorubicin sensitive and resistant cells. Cell cultures were carried out using wild type CHO-K1 cells as well as CHO-Adr cells, the latter being selected by a series of step-wise selections of doxorubicin resistant clones in presence of 0.4 ug/ml of doxorubicin. […] The resistant cells were stable in cell culture in the absence of doxorubicin. Both cell lines were cultivated in Hams F10 medium supplemented with 5% newborn calf serum, 5% foetal calf serum, antibiotics and 3mM glutamine. The cells were maintained as monolayer cultures 37° C. under 5% CO2. Drug sensitivity in CHO-K1and CHO-Adr cells was assessed by a semi-automated colorimetric MTT assay. The assay is dependent on the cellular reduction of MTT (3-U4,5-dimethylthiazol-2-ylA-2,5-diphenyl tertazolium bromide, thiazolyl blue) by the mitochondrial dehydrogenase of viable cells to a blue formazan product which was measured spectrophotometrically. The cells were seeded on 96-well plates and allowed to settle for 12 hours at 37° C. in 5% CO2. Appropriate drug concentrations diluted in growth medium were added for 24 hours. Toremifene was dissolved in 95% ethanol stock solution, doxorubicin stock solution was prepared in water. […] The cells were incubated with the drugs for 24 hours, after which the cells were washed twice with phosphate buffered saline before being placed in 200 μl fresh medium for a further 48 hours. At the end of this incubation 0.1 mg MTT was added to each well and incubated for 4 hours. The medium was carefully aspirated and the crystals were solubilised in 100 μ l DMSO (dimethyl sulfoxide). Absorbances at 540 nm were read immediately on an ELISA Multiskan reader. The results were expressed as a percentage of absorbance of drug treated cells compared to controls.
The effect of AAG in the concentration of 0.1 to 2 mg/ml was assessed on the potentiation produced by toremifene.

B-16 melanoma = assay: Schedule dependency of antitumor effect in B-16 melanoma
Description: (§1) Lewis Lung (LL) or melanoma B-16 tumor cells, 2×10^6 cells/animal, were inoculated intramuscularly to female C-57 mice. Tumors were allowed to grow to the mean diameter of 1.5 cm after which toremifene/doxorubicin treatments were started as indicated in the next tables. Tumor size was measured before treatment and after 10 days in 2 dimensions and the mean was considered as tumor diameter. Weight of the animals was also recorded.

Human melanoma UV-me-1 = assay: Toremifene and doxorubicin in human melanoma UV-me-1; settings: for Toremifene and doxorubicin in UV-me-1 (living cells): toremifene 0 μM, 2 days, control 100
HOV-007 = assay: Number of living cells (bioluminescence), ovarian cancer line HOV-007; settings: toremifene 0 μM, 3 days
Description: (§2) Two human ovarian cell lines were established in vitro from fresh serous ovarian cancer tissues. The lines are coded HOV-007 and HOV-018. The cells were cultivated in Eagle's MEM containing 1% unstripped foetal calf serum. The assays were carried out at 37° C. in 5% CO2 on 96 well plates.
presented. Number of cells was quantitated after 3 days'

Lewis Lung (LL) tumor = assay: Schedule dependency of antitumor effect in Lewis Lung tumor
Description: as §1

HOV-018 = assay: Number of living cells (bioluminescence), ovarian cancer line HOV-018; settings: toremifene 0 μM, 4320 min
Description: as §2

[3] = drug 0.6 μg/ml +1 μM doxorubicin
[4] = doxorubicin 3 mg/kg s.c. days 1-5
[5] = doxorubicin 3 mg/kg s.c. days 6-10

CCC(=C(c1ccc(O)cc1)c1ccc(OCCN(C)C)cc1)c1ccccc1 [4-hydroxy tamoxifen]
Inhibition of rat PKC activity in vitro (rat PKC): inhibition of rat PKC activity in vitro

CN(C)CCOc1ccc(C(=C(CCCl)c2ccccc2)c2ccc(O)cc2)cc1 [4-hydroxytoremifene, 4-chloro-1-(4-hydroxyphenyl)-2-phenyl-1-(4-(2-(N,N-dimethylamino)ethoxy)phenyl)-1-butene]
Effectiveness in reversing MDR (MCF-7/DOX cells): slightly less effective
Inhibition of cell growth, Actual (MCF-7/DOX cells; [3]): 28 % control
Potential (potentiation of doxorubicin activity) (MCF-7/DOX cells; [3]): 8 % control
Inhibition of cell growth, Actual (MCF-7/DOX cells; drug […] +1 μM doxorubicin): 45 % control
Potential (potentiation of doxorubicin activity) (MCF-7/DOX cells; drug […] +1 μM doxorubicin): 10 % control

CNCCOc1ccc(C(=C(CCCl)c2ccccc2)c2ccccc2)cc1 [N-demethyltoremifene, 4-chloro-1,2-diphenyl-1-(4-(2-(N-methylamino)ethoxy)phenyl)-1-butene]
Effectiveness in reversing MDR (MCF-7/DOX cells): almost equally effective
Inhibition of cell growth, Actual (MCF-7/DOX cells; [3]): 28 % control
Potential (potentiation of doxorubicin activity) (MCF-7/DOX cells; [3]): 33 % control
Inhibition of cell growth, Actual (MCF-7/DOX cells; drug […] +1 μM doxorubicin): 40 % control
Potential (potentiation of doxorubicin activity) (MCF-7/DOX cells; drug […] +1 μM doxorubicin): 43 % control

CC/C(=C(\c1ccccc1)c1ccc(OCCN(C)C)cc1)c1ccccc1 [Tamoxifen, tamoxifen]
Inhibition of PKC activity in vivo (PKC): inhibition of PKC activity in vivo
Modulation of multidrug resistance [1]: modulation of multidrug resistance; also recorded: possess activity for reversing MDR
C14-doxorubicin accumulation [1]: no increase in C14-doxorubicin accumulation
Effect of 50 nM estradiol on the effects of tamoxifen [1]: did not attenuate the effects of tamoxifen
Inhibition of rat PKC activity in vitro (rat PKC): inhibition of rat PKC activity in vitro
Safety / toxicity in clinical use [2]: higher toxicity
Reversal by oestradiol of growth inhibitory effects of high doses (cultured cells): could not be reversed by oestradiol
Effectiveness in reversing MDR (MCF-7/DOX cells): almost equally effective
Reversal of MDR by triparonol analogues (MDR cell): reversal of MDR

Cc1c2oc3c(C)ccc(C(=O)N[C@@H]4C(=O)N[C@H](C(C)C)C(=O)N5CCC[C@H]5C(=O)N(C)CC(=O)N(C)[C@@H](C(C)C)C(=O)O[C@@H]4C)c3nc-2c(C(=O)N[C@@H]2C(=O)N[C@H](C(C)C)C(=O)N3CCC[C@H]3C(=O)N(C)CC(=O)N(C)[C@@H](C(C)C)C(=O)O[C@@H]2C)c(N)c1=O [actinomycin D, reference compound] (I: T[dV]P[Sar][NMeV] / II: T[dV]P[Sar][NMeV]; ester I:1-I:C, II:1-II:C; linker I:N-II:N via Actinocin(9to1))
Resistance of the CHO-Adr cell line (CHO-Adr cells): cross-resistant

CCN(CC)CCOc1ccc(C(=C(Cl)c2ccccc2)c2ccccc2)cc1 [clomiphene]
Reversal of MDR by triparonol analogues (MDR cell): reversal of MDR

COc1cc2c(c(OC)c1OC)-c1ccc(OC)c(=O)cc1[C@@H](NC(C)=O)CC2 [colchicine, reference compound]
Resistance of the CHO-Adr cell line (CHO-Adr cells): cross-resistant

COc1cccc2c1C(=O)c1c(O)c3c(c(O)c1C2=O)C[C@@](O)(C(C)=O)C[C@@H]3O[C@H]1C[C@H](N)[C@H](O)[C@H](C)O1 [daunorubicin, reference compound]
Resistance of the CHO-Adr cell line (CHO-Adr cells): cross-resistant

COc1cccc2c1C(=O)c1c(O)c3c(c(O)c1C2=O)C[C@@](O)(C(=O)CO)C[C@@H]3O[C@H]1C[C@H](N)[C@H](O)[C@H](C)O1 [doxorubicin]
Change of body weight (B-16 melanoma; [4]): -5 g
Change of tumor size (B-16 melanoma; [4]): +1.9 mm
Change of body weight (B-16 melanoma; [5]): -2 g
Change of tumor size (B-16 melanoma; [5]): +3.1 mm
Resistance of the CHO-Adr cell line (CHO-Adr cells): resistant
Sensitivity of the cell line (Human melanoma UV-me-1; UV-me-1): relatively sensitive
Toremifene and doxorubicin in UV-me-1 (living cells) (Human melanoma UV-me-1; doxorubicin 0.1 μg/ml): 74
Toremifene and doxorubicin in UV-me-1 (living cells) (Human melanoma UV-me-1; doxorubicin 1.0 μg/ml): 9
Number of living cells (HOV-007; doxorubicin 0.1 μg/ml): 87% of control values
Number of living cells (HOV-007; doxorubicin 0.3 μg/ml): 64% of control values
Number of living cells (HOV-007; doxorubicin 1.0 μg/ml): 41% of control values
Change of body weight (Lewis Lung (LL) tumor; [4]): -2 g
Change of tumor diameter (Lewis Lung (LL) tumor; [4]): +2.0 mm
Change of body weight (Lewis Lung (LL) tumor; [5]): +10 g
Change of tumor diameter (Lewis Lung (LL) tumor; [5]): +3.7 mm
Number of living cells (HOV-018; doxorubicin 0.1 μg/ml): 96% of control values
Number of living cells (HOV-018; doxorubicin 0.3 μg/ml): 89% of control values

COc1ccc2c(c1)CCC(c1ccccc1)=C2c1ccc(OCCN2CCCC2)cc1 [nafoxidine]
Reversal of MDR by triparonol analogues (MDR cell): reversal of MDR

C1CCC(C(CC2CCCCN2)C2CCCCC2)CC1 (stereo not shown) [perhexilene maleate, perhexiline maleate]
Modulation of multidrug resistance [1]: modulation of multidrug resistance
